Assays:
[1] = molecular target: T1, Mitogen-activated protein kinase kinase kinase 19 (Homo sapiens) (UniProt Q56UN5); assay: Selectivity interaction (KinomeScan (DiscoverX)) EUB0001049a MAP3K19; settings: at 1 µM
T1 sequence (whole entry): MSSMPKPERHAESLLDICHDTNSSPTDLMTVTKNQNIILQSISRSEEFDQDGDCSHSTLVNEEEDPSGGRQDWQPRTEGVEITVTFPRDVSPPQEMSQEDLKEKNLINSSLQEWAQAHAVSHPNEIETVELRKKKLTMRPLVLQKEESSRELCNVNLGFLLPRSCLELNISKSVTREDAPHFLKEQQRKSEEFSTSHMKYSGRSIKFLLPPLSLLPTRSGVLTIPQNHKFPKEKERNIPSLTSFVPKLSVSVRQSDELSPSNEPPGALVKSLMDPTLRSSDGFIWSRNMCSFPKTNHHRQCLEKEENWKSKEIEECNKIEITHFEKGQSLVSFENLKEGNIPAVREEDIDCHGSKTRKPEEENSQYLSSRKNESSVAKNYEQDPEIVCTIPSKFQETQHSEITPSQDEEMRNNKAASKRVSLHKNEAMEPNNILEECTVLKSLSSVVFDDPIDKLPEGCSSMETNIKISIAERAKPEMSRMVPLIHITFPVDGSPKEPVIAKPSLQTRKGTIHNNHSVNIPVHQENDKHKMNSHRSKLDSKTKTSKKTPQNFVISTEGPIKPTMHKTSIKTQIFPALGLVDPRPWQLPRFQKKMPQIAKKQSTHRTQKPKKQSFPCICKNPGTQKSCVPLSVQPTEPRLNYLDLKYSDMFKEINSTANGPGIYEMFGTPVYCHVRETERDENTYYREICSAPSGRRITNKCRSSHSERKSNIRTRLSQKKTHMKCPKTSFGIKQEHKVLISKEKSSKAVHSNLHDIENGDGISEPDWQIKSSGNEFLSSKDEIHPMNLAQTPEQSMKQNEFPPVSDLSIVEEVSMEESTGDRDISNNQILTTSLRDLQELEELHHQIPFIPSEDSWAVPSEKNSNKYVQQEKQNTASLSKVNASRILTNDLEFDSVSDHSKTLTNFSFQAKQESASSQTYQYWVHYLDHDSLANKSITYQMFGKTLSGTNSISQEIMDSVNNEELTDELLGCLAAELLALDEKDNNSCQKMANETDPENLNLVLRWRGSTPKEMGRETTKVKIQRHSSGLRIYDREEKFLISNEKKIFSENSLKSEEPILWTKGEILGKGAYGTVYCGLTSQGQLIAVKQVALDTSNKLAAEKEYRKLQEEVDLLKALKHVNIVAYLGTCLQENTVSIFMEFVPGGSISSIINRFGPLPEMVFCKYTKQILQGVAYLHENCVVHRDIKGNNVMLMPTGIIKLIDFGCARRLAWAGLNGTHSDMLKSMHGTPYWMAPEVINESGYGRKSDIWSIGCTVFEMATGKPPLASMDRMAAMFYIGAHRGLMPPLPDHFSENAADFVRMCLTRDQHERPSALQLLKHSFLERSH

[2] = molecular target: Receptor-interacting serine/threonine-protein kinase 2 (Homo sapiens, UniProt O43353); assay: Selectivity interaction (KinomeScan (DiscoverX)) EUB0001049a RIPK2; settings: at 1 µM
Receptor-interacting serine/threonine-protein kinase 2, sequence (O43353 whole entry): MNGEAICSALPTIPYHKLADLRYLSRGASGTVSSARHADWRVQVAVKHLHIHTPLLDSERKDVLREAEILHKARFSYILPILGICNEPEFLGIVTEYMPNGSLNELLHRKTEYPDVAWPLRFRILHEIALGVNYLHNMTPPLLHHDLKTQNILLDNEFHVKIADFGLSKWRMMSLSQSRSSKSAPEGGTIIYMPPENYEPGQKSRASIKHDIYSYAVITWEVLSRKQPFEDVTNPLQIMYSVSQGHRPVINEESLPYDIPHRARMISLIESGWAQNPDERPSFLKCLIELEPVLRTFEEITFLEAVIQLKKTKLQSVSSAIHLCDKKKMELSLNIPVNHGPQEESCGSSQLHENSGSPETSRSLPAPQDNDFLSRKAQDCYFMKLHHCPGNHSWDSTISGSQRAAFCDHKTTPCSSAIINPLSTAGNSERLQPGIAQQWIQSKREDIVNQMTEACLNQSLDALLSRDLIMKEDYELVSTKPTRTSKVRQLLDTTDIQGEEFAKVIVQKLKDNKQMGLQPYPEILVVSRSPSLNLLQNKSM

[3] = molecular target: T2, Cyclin-dependent kinase 11A (Homo sapiens) (UniProt Q9UQ88); assay: Selectivity interaction (KinomeScan (DiscoverX)) EUB0000666a CDK11A; settings: at 10 µM
T2 sequence (whole entry): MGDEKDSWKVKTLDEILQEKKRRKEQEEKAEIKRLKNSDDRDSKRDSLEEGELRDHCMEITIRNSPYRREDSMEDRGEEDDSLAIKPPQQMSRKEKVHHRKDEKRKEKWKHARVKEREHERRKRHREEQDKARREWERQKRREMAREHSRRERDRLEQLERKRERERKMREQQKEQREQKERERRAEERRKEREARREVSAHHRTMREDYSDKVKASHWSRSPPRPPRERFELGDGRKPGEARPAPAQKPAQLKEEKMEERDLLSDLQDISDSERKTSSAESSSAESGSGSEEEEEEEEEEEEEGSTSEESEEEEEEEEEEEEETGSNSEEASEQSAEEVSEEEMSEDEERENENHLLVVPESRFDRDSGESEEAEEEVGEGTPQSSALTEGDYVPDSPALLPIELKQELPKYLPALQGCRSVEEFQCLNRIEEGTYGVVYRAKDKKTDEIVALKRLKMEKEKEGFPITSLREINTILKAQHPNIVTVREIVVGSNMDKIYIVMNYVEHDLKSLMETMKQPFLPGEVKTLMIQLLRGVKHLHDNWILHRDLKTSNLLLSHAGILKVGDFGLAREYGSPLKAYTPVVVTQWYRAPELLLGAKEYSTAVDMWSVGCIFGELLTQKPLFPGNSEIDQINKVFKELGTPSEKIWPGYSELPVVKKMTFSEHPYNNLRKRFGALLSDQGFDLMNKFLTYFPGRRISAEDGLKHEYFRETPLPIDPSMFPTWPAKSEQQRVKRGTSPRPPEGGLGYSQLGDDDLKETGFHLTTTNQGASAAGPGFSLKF

[4] = molecular target: T3, Muscle, skeletal receptor tyrosine-protein kinase (Homo sapiens) (UniProt O15146); assay: Selectivity interaction (KinomeScan (DiscoverX)) EUB0001079a MUSK; settings: at 1 µM
T3 sequence (whole entry): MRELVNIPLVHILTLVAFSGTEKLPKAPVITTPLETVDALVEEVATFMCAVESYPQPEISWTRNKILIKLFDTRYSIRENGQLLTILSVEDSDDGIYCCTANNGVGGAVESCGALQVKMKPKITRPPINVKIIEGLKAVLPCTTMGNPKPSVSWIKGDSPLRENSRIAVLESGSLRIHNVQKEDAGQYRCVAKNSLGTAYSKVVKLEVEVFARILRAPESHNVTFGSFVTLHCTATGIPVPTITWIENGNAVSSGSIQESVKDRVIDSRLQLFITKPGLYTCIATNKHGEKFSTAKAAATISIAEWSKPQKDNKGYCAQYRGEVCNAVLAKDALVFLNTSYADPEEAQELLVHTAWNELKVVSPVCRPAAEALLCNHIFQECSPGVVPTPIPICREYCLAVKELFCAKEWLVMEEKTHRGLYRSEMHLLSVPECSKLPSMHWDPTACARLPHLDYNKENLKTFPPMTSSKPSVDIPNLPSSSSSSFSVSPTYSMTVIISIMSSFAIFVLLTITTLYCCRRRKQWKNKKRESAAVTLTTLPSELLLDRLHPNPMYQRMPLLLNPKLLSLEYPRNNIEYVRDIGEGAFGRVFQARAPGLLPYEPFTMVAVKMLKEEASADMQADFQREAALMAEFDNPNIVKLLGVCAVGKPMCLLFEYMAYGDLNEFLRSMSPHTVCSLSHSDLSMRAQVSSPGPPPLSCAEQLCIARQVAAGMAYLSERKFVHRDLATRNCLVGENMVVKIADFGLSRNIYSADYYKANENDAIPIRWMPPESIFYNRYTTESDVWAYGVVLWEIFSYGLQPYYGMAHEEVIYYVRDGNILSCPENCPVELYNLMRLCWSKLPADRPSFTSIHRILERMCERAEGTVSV

For `COc1cc(Nc2nc(C)cc(-c3cnn4nc(OC)ccc34)n2)cc(C(F)(F)F)c1`, the % of control [1] was 75% and the % of control [2] was 100%.
For `O=C(NOC[C@H](O)CO)c1ccc(F)c(F)c1Nc1ccc(I)cc1F`, the % of control [3] was 100%.
`Nc1cnc(N2CCc3cc(S(=O)(=O)Nc4c(F)cc(Cl)cc4F)cc(N4CCCC4=O)c32)nc1` [TP-020n] showed a % of control [4] of 100%.

Source: ChEMBL document CHEMBL5465560, “Selectivity Literature for EUbOPEN Chemogenomic Library” (2024)
